The source of these data is patent US20250313544A1, “INHIBITORS OF GLUTATHIONE S-TRANSFERASE ZETA 1 (GSTZ1) AND METHODS OF USE” (H. LEE MOFFITT CANCER CENTER AND RESEARCH INSTITUTE, INC., priority 2022, published 2025).

Each structure is given as a SMILES string.

The test system of assay [1] is H1792 LUAD cells. Nature of the assay: Chemical proteomics target profiling in live H1792 cells (label-free LC-MS/MS, comparison with control probe 22 and panel-wide cross-comparison). Type of assay: binding, human. The procedure: Cells were grown in 10 cm dishes to ˜90% confluence at the time of treatment. Cells were carefully washed twice with Dulbecco's phosphate buffered saline (DPBS) and replenished with fresh serum-free RPMI 1640 media containing indicated probes ([…]), competitors, or DMSO. Without competitors, cells were incubated with probes for 30 min at 37° C. and then exposed to 365 nm UV light for 15 min on ice. With competitors, cells were pre-treated with competitors for 30 min and photoactivated for 15 min. Probes were then added to cells for an additional 30 min incubation. For no UV experiments, cells were incubated for 15 min under ambient light. Cells were harvested in cold DPBS and pellets were washed with cold DPBS (2 X). Pellets were either directly processed or kept frozen at −80° C. until use. Cells pellets were lysed for 30 min in cold DPBS (100-300 uL) per culture dish supplemented with 1% NP-40, followed by sonication (5 pulses, 4 s on, 20 s off, output setting=4). Lysates were centrifuged at 20,817×g for 20 min, and supernatant (soluble proteome) was used for further processing. Protein concentrations were determined using Bradford assays.
Protein pellets were transferred to 5 mL microcentrifuge tubes and then resuspended in a freshly-prepared solution of proteomics-grade urea (320 μL, 6 M Urea in DPBS) containing 80 μL of 10% SDS and dissolved by sonication. To each solution, 4 mL DPBS was added (final conc: 0.2%, total volume) and incubated with pre-equilibrated NeutrAvidin agarose resin (100 μL 1:1 slurry, Pierce, Cat. 29201) for 2 hrs at ambient temperature on a rotator. The NeutrAvidin beads were collected by centrifugation (1,400×g, 2 min) and sequentially washed with 0.2% SDS in DPBS (2×2 mL), detergent-free DPBS (2×2 mL), and 50 mM ammonium bicarbonate (AMBIC, 2×2 mL). Beads were resuspended with 200 μL 50 mM AMBIC and incubated with TCEP 50 μL (100 mM in 50 mM AMBIC) for 30 min at 37° C. Iodoacetamide (50 μL of 200 mM in 50 mM AMBIC) was added and incubated for 30 min at ambient temperature. The beads were again washed with 2×1 mL 50 mM AMBIC and resuspended in 100 μL of fresh 50 mM AMBIC and treated with 2 μg of sequencing grade modified trypsin (Promega, #V5111) at 37° C. overnight. These samples were acidified with formic acid (final conc: 5%) and centrifuged (1,000×g, 2 min). The supernatant was collected and desalted through ZIPTIPs, and the desalted peptide mixture were dried in vacuum and reconstituted with HPLC buffer (2% acetonitrile, 0.1% formic acid) for LC-MS/MS analysis. Tryptic peptides of avidin were excluded from MS2 analysis to maximize detection of the protein targets (Table S7). Samples were analyzed using LC-MS/MS after being spiked with 50 fmol/uL PRTC standards (88320, Pierce Retention Time Calibration Mixture, Thermo Fisher, MA). A nanoflow ultra high performance liquid chromatograph and nanoelectrospray orbitrap mass spectrometer (RSLCnano and Q Exactive plus, Thermo) were used for LC-MS/MS. The sample was loaded onto a pre-column (C18 PepMap100, 2 cm length×100 μm ID packed with C18 reversed-phase resin, 5 μm particle size, 100 Å pore size) and washed for 8 minutes with aqueous 2% acetonitrile and 0.1% formic acid. Trapped peptides were eluted onto the analytical column, (C18 PepMap100, 25 cm length×75 μm ID, 2 μm particle size, 100 Å pore size, Thermo). A 120-minute gradient was programmed as: 95% solvent A (aqueous 2% acetonitrile+0.1% formic acid) for 8 minutes, solvent B (aqueous 90% acetonitrile+0.1% formic acid) from 5% to 38.5% in 90 minutes, then solvent B from 50% to 90% B in 7 minutes and held at 90% for 5 minutes, followed by solvent B from 90% to 5% in 1 minute and re-equilibration for 10 minutes using a flow rate of 300 nl/min. Spray voltage was 1900 V. Capillary temperature was 275° C. S lens RF level was set at 40. Top 16 tandem mass spectra were collected in a data-dependent manner. The resolution for MS and MS/MS were set at 70,000 and 17,500 respectively. […]

The test system of assay [2] is drug-refractory NSCLC cells (H1792, H520, HCC366). The assay can be described thus: Cell viability assay (CellTiter-Glo) across drug-refractory NSCLC cell lines. Type of assay: cell-based, human. As to the method: Cells were seeded in Corning 384-well black walled/clear bottom microplates with a density of 1,000 cells/well and treated with indicated drugs and concentrations following cell attachment for 24 h. After 72 h or 96 h, as indicated, cell viability was evaluated with CellTiter-Glo (Promega, Madison, WI) according to manufacturer's recommendations. An M5 Spectramax plate reader (Molecular devices) was used to read the plates with 500 ms integration. Data was processed and analyzed using Excel and GraphPad Prism 9.0.

`C#CCCC1(CCC(=O)N2CCC(COc3nc4ccccc4nc3C)CC2)N=N1` [Probe 17, 3-(3-(but-3-yn-1-yl)-3H-diazirin-3-yl)-1-(4-(((3-methylquinoxalin-2-yl)oxy)methyl)piperidin-1-yl)propan-1-one]: the “prominent target protein predominantly enriched by the probe” value in assay [1] (compared to control probe and probe panel) was “GSTZ1”. For the same compound, the “selectivity of probe for GSTZ1” value in assay [1] (many other enriched putative targets vs. negative control probe alone) was “should not be considered a selective probe for GSTZ1”. Further, the “single agent activity (cell viability)” value in assay [2] is given as “moderate single agent activity”. In addition, in assay [2] (single agent), the “cellular activity of probes (cell viability)” value is on record as “displayed activity toward multiple tested cell lines” and the “relative potency among active probes (cell viability)” value was “more potent”.
